Data as given in ChEMBL document CHEMBL1201862, “PubChem BioAssay data set” (2004).
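Results reflect a 48-hour exposure of cells in 96-well plates to compound at five concentrations. GI50 marks 50% less growth.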 The source made the active and inactive calls. No stated cut-off is given here; in the data, active = GI50 up to about 1.1 µM and inactive = higher.

Tests used:
Assay in all cases: DTP human tumour cell line panel, 48 h
OVCAR-8 = tested on: OVCAR-8
SK-OV-3 = tested on: SK-OV-3
HCT-116 = tested on: HCT-116
SNB-75 = tested on: SNB-75
U-251 = tested on: U-251
RXF 393 = tested on: RXF 393
NCI-H23 = tested on: NCI-H23
A498 = tested on: A498
SF-539 = tested on: SF-539
SK-MEL-2 = tested on: SK-MEL-2
SK-MEL-5 = tested on: SK-MEL-5
SW-620 = tested on: SW-620
CAKI-1 = tested on: CAKI-1
LOX IMVI = tested on: LOX IMVI
M14 = tested on: M14
TK-10 = tested on: TK-10
ACHN = tested on: ACHN
MDA-MB-231 = tested on: MDA-MB-231
786-0 = tested on: 786-0

Measured: GI50

CC12CCC(C(=O)N3CC=CCC3)(OC1=O)C2(C)C (stereo unspecified)
inactive: OVCAR-8 > 100 µM | SK-OV-3 > 100 µM | HCT-116 > 100 µM | SNB-75 > 100 µM | U-251 > 100 µM | RXF 393 > 100 µM | NCI-H23 > 100 µM | A498 > 100 µM | SF-539 > 100 µM | SK-MEL-2 > 100 µM | SK-MEL-5 > 100 µM | SW-620 > 100 µM | CAKI-1 > 100 µM | LOX IMVI > 100 µM

CCCCCCCSCC1OC(n2cnc3c(N)ncnc32)C(O)C1O (stereo unspecified)
inactive: OVCAR-8 14.4 µM | HCT-116 3.59 µM | SNB-75 24 µM | U-251 > 100 µM | M14 22.5 µM | RXF 393 > 100 µM | NCI-H23 > 100 µM | TK-10 > 100 µM | A498 14.2 µM | SF-539 32.7 µM | SK-MEL-2 20.3 µM | SK-MEL-5 16.2 µM | SW-620 13.3 µM | CAKI-1 5.08 µM | ACHN 25.9 µM | LOX IMVI 49.9 µM

CC(C)(C)OC(=O)NCCc1ccc(N)cc1
inactive: OVCAR-8 > 100 µM | HCT-116 > 100 µM | U-251 30.8 µM | MDA-MB-231 > 100 µM | M14 > 100 µM | TK-10 > 100 µM | SK-MEL-5 33 µM | SW-620 > 100 µM | ACHN > 100 µM | LOX IMVI > 100 µM

CCCC(=O)OCC1OC(n2ccc(N)nc2=O)C(OC(=O)CCC)C1OC(=O)CCC (stereo unspecified)
inactive: OVCAR-8 6.1 µM | SK-OV-3 > 100 µM | HCT-116 33.3 µM | SNB-75 > 48.9 µM | U-251 35 µM | RXF 393 > 58.7 µM | NCI-H23 5.01 µM | A498 5.77 µM | SF-539 77.3 µM | SK-MEL-2 > 85.9 µM | SK-MEL-5 > 86.5 µM | SW-620 > 100 µM | CAKI-1 5.25 µM | LOX IMVI 3.03 µM

CCOC(=O)/C=C/n1c2ccccc2c(=O)c2cc(OC)ccc21
inactive: OVCAR-8 > 100 µM | SK-OV-3 > 100 µM | HCT-116 90.6 µM | SNB-75 51.5 µM | U-251 71.8 µM | M14 > 100 µM | RXF 393 > 100 µM | NCI-H23 57.1 µM | 786-0 > 100 µM | TK-10 74.5 µM | A498 > 100 µM | SF-539 > 100 µM | SK-MEL-2 > 100 µM | SK-MEL-5 > 100 µM | CAKI-1 > 100 µM | ACHN > 100 µM | LOX IMVI 20.7 µM

O=C1c2ccccc2CCCCCCCCCCC12OCCCO2
inactive: OVCAR-8 87.3 µM | SK-OV-3 80.5 µM | HCT-116 16 µM | SNB-75 25.6 µM | U-251 24.4 µM | M14 51.3 µM | RXF 393 10.6 µM | NCI-H23 40.3 µM | 786-0 67.1 µM | TK-10 > 100 µM | A498 32.1 µM | SF-539 58.1 µM | SK-MEL-2 24.3 µM | SK-MEL-5 35.6 µM | CAKI-1 25.5 µM | ACHN 52.4 µM | LOX IMVI 29.2 µM

CN(C)CC1(Cc2ccccc2)CC/C(=C\c2ccccc2)C1=O (stereo unspecified)
inactive: OVCAR-8 34.5 µM | HCT-116 29.1 µM | SNB-75 57.3 µM | U-251 32.8 µM | M14 49.3 µM | RXF 393 35.6 µM | NCI-H23 44.8 µM | 786-0 35.1 µM | TK-10 > 100 µM | A498 33.1 µM | SF-539 24.9 µM | SK-MEL-2 50.9 µM | SK-MEL-5 22.5 µM | SW-620 20.8 µM | CAKI-1 49.1 µM | ACHN 50.7 µM | LOX IMVI 29.6 µM

C/N=c1\ss/c(=N\C(=S)N(C)C)n1-c1ccccc1
inactive: OVCAR-8 > 100 µM | SK-OV-3 > 100 µM | HCT-116 > 72.8 µM | SNB-75 17.3 µM | U-251 67 µM | M14 > 100 µM | RXF 393 > 48.2 µM | NCI-H23 > 68.1 µM | 786-0 38.3 µM | TK-10 > 100 µM | A498 44.6 µM | SF-539 31 µM | SK-MEL-2 > 64 µM | SK-MEL-5 > 20.7 µM | SW-620 > 100 µM | CAKI-1 > 100 µM | ACHN > 100 µM | LOX IMVI > 100 µM

COC(=O)[C@H](Cc1ccccc1)NC(=O)/C(=C/C(C)C)NC(=O)[C@H](CCSC)NC=O
inactive: OVCAR-8 > 100 µM | SK-OV-3 > 100 µM | HCT-116 > 100 µM | SNB-75 > 100 µM | U-251 > 100 µM | M14 > 100 µM | RXF 393 > 100 µM | NCI-H23 > 100 µM | 786-0 > 100 µM | TK-10 > 100 µM | A498 > 100 µM | SF-539 > 100 µM | SK-MEL-2 > 100 µM | SK-MEL-5 > 100 µM | SW-620 > 100 µM | CAKI-1 > 100 µM | ACHN > 100 µM | LOX IMVI > 100 µM

COC(=O)c1ccc(/N=N/N(C)COc2ccc(Br)cc2)cc1
inactive: OVCAR-8 > 81.5 µM | SK-OV-3 > 100 µM | HCT-116 > 100 µM | SNB-75 57.3 µM | U-251 > 71.3 µM | RXF 393 80.4 µM | NCI-H23 > 68.5 µM | A498 37.7 µM | SF-539 > 100 µM | SK-MEL-2 > 100 µM | SK-MEL-5 55.3 µM | SW-620 > 90.2 µM | CAKI-1 > 57.7 µM | LOX IMVI 49.2 µM

CC(C)Cc1cccc(C(C)C)c1NC(=O)CCC(=O)N/N=C1\C(=N/NC(=O)CCC(=O)Nc2c(C(C)C)cccc2C(C)C)C(c2ccc3c(c2)OCO3)Oc2ccccc21 (stereo unspecified)
inactive: OVCAR-8 69.3 µM | SK-OV-3 > 100 µM | HCT-116 61.2 µM | SNB-75 49.2 µM | U-251 35 µM | M14 > 100 µM | RXF 393 34.9 µM | NCI-H23 > 100 µM | TK-10 > 100 µM | A498 > 100 µM | SF-539 97.7 µM | SK-MEL-2 > 100 µM | SK-MEL-5 > 100 µM | SW-620 46 µM | CAKI-1 53.2 µM | ACHN 83 µM | LOX IMVI 44.5 µM

Cc1cc(S(=O)(=O)Nc2nc(N)nc(N(C)C)n2)c(SCC(=O)O)cc1Cl
inactive: OVCAR-8 > 10 µM | SK-OV-3 > 10 µM | HCT-116 > 10 µM | SNB-75 > 10 µM | U-251 > 10 µM | M14 > 10 µM | RXF 393 > 10 µM | NCI-H23 > 10 µM | 786-0 > 10 µM | TK-10 > 10 µM | A498 > 10 µM | SF-539 > 10 µM | SK-MEL-2 > 10 µM | SK-MEL-5 > 10 µM | SW-620 > 10 µM | CAKI-1 > 10 µM | ACHN > 10 µM | LOX IMVI > 10 µM

C[C@]12CCC(=O)CC1CCCC2=O (stereo partly specified)
inactive: OVCAR-8 > 100 µM | SK-OV-3 > 100 µM | HCT-116 > 100 µM | SNB-75 > 100 µM | U-251 > 100 µM | M14 > 100 µM | RXF 393 > 100 µM | NCI-H23 > 100 µM | 786-0 > 100 µM | TK-10 > 100 µM | A498 > 100 µM | SF-539 > 100 µM | SK-MEL-2 > 100 µM | SK-MEL-5 > 100 µM | SW-620 > 100 µM | CAKI-1 > 100 µM | LOX IMVI > 100 µM

CC(C)OC(=O)c1cc(NC(=O)C(C)(C)C)c(F)cc1Cl
inactive: OVCAR-8 > 100 µM | SK-OV-3 > 100 µM | HCT-116 > 100 µM | SNB-75 > 100 µM | U-251 > 100 µM | M14 > 100 µM | RXF 393 > 100 µM | NCI-H23 > 100 µM | 786-0 > 100 µM | TK-10 > 100 µM | A498 > 100 µM | SF-539 > 100 µM | SK-MEL-2 > 100 µM | SK-MEL-5 > 100 µM | SW-620 > 100 µM | CAKI-1 > 100 µM | ACHN > 100 µM | LOX IMVI > 100 µM

COC1(Cc2ccccc2)C(=O)c2ccccc2N1C(C)=O (stereo unspecified)
inactive: OVCAR-8 > 100 µM | SK-OV-3 > 100 µM | HCT-116 > 100 µM | SNB-75 > 100 µM | U-251 > 100 µM | M14 > 100 µM | RXF 393 > 100 µM | NCI-H23 > 100 µM | 786-0 > 100 µM | A498 > 100 µM | SF-539 > 100 µM | SK-MEL-2 > 100 µM | SW-620 > 100 µM | CAKI-1 > 100 µM | ACHN > 100 µM

COC(=O)C1=C(OC)c2cc3c(cc2C(c2cc(OC)c(OC)c(OC)c2)C1C(=O)OC)OCO3 (stereo unspecified)
inactive: OVCAR-8 79.3 µM | SK-OV-3 > 100 µM | HCT-116 > 100 µM | SNB-75 > 100 µM | U-251 > 100 µM | M14 > 100 µM | RXF 393 49 µM | NCI-H23 > 100 µM | 786-0 > 100 µM | TK-10 > 100 µM | A498 43.2 µM | SF-539 > 100 µM | SK-MEL-2 > 100 µM | SK-MEL-5 > 100 µM | SW-620 > 100 µM | CAKI-1 > 100 µM | ACHN > 100 µM | LOX IMVI > 100 µM

CC#N.O[C@@H]1CCCC[C@@H]1O.O[C@@H]1CCCC[C@@H]1O.[TeH2]
inactive: OVCAR-8 21.8 µM | SK-OV-3 77.8 µM | HCT-116 15.4 µM | SNB-75 > 100 µM | U-251 12.9 µM | M14 > 100 µM | RXF 393 72.3 µM | NCI-H23 21.2 µM | 786-0 34.1 µM | TK-10 > 100 µM | A498 30.4 µM | SF-539 > 100 µM | SK-MEL-2 74.3 µM | SK-MEL-5 40.6 µM | SW-620 18.6 µM | CAKI-1 > 100 µM | ACHN 33.2 µM | LOX IMVI 10.6 µM
